# Results published in ChEMBL document CHEMBL3507680, “University of Dundee, Gates Library screen for HepG2 cell viability”.
# Assay: Human HepG2 cell viability assay in 384 well format
# Format: toxicity, cell-based
# Design: dose 125 nL, time 70.5 hour; cytotoxicity at 70.5 h: concentration not given beside the values
# Conditions: HepG2 cells, read-out: Inhibition
row,Structure (SMILES),cytotoxicity at 70.5 h [%]
1,CCn1c(C)nnc1SCCNC(=O)Cn1cnc2ccccc2c1=O,-4.84
2,O[C@@H]1CN(c2nc3ccccc3s2)CC[C@H]1c1ccc2c(c1)OCO2,-3.71
3,N#Cc1cccnc1NCCNC(=O)N1CCCC(C(F)(F)F)C1 (stereo not given),-11.9
4,COc1ccc(Cc2nnc(NC(=O)C3CC34CCC4)s2)cc1OC (stereo not given),0.282
5,CC(=O)N[C@@H]1CN(C(=O)c2cccc(C)c2)C[C@H]1O,-8.6
6,COc1cc(CSc2nnc(N)n2C2CC2)ccc1SC,-5.1
7,O=C(Nc1ccccc1-c1ccccc1)N1C[C@@H]2CNC[C@]2(C(=O)O)C1,-2.53
8,Cc1ccc(CC(=O)NC2CCN(c3cccc(Cl)c3)C2)cn1 (stereo not given),22.6
9,O=C(c1ncccc1O)N1CCN(Cc2ccco2)C(CCO)C1 (stereo not given),-11.1
10,CN(CCO)C[C@@H]1CN(C(=O)c2c(F)cccc2Cl)C[C@@H]1CO,-8.11
11,CC(C)(C)CN1CCCC(c2nccnc2Nc2cnccn2)C1 (stereo not given),-12.3
12,Cc1ccc(Cl)cc1NCc1nc2n(n1)CCCCC2,7.47
13,CN1CCC(n2nc(CC3CC3)nc2-c2ccc(F)cc2Cl)CC1,-7.5
14,Cc1ccc(CN(Cc2ccccn2)C(=O)[C@H]2CC[C@@H](N)C2)s1,-10.2
15,CN(Cc1cccs1)C(=O)CN1CCCCC1Cn1cncn1 (stereo not given),23.2
16,COc1ccccc1CC(C)(C)NC(=O)CNS(C)(=O)=O,-2.04
17,CCN1CCN(C(=O)Cc2ccc(S(=O)(=O)C(F)F)cc2)CC1,5.94
18,O=C(C1CCOC1)N1CCN(Cc2cccnc2)c2ncccc2C1 (stereo not given),-7.36
19,NCC1[C@H]2CN(Cc3ccccc3F)C[C@@H]12 (stereo not given in full),-6.6
20,Cn1nc(C(C)(C)C)cc1NC(=O)Cn1ccnc1,-10.5
21,Cc1nc2c(c(=O)[nH]1)CCN(C(=O)c1cccc3nccnc13)C2,0.0996
22,CCOC(=O)c1coc(N2CCC(N3CCC(O)CC3)CC2)n1,-7.59
23,CCCc1nc(C)c(CN2CC3(CCOC3)CCC2=O)s1 (stereo not given),-8.32

row,Structure (SMILES),cytotoxicity at 70.5 h [%]
1,COc1ccc(CNC2CCCN(Cc3noc(C)n3)C2)cc1F (stereo not given),23.4
2,c1ccc(CN2CCC3(CC2)Nc2ccccc2CO3)cc1,-6.59
3,CCN(CC)C(=O)c1ccc(NC(=O)CNc2ccc(Br)cc2F)cc1,4.87
4,N#Cc1ccccc1OCCN1CCCC1Cn1cccn1 (stereo not given),-4.78
5,CN1CC[C@]2(CN(S(C)(=O)=O)C[C@H]2c2ccccc2)C1=O,3.8
6,COc1ccc2cc(NC(=O)CCNc3nc(C)cc(C)n3)cnc2c1,-24.1
7,CCc1nc2n(n1)CC(NCc1nc3ccccc3o1)CC2 (stereo not given),-8.97
8,Fc1cccnc1Oc1cc(F)c(CN2CCCC2)c(F)c1,-13.4
9,OCCC1CN(C2CCC2)CCN1C1CCCC1 (stereo not given),-6.56
10,CCC1(CO)CCN(C(=O)c2cc(COc3ccccc3F)[nH]n2)CC1,15.1
11,COC(=O)[C@H](CCSC)NC(=O)Cn1ccc2c(Cl)cccc21,-17.2
12,CS(=O)(=O)NCc1nnc2n1CCN(Cc1ccncc1)C2,20.1
13,Cc1cc(N2CCc3c(nc(C(C)C)n3C)C2)nc(N)n1,-10.6
14,CCOc1cc(=O)n2c(c1C(=O)OCc1cccc(C)c1)CCCC2,-11.3
15,O=C(c1cscn1)N1CCC2(CCN(Cc3nccs3)CC2)C1,-23.5
16,CN(C)CCCNc1ncnc2cccc(F)c12,15.7
17,COC(=O)c1cc(NC(=O)CCc2cscn2)ccc1C,-5.71
18,N#Cc1ccccc1C(=O)N1C[C@H](CO)C[C@H](CN2CCCC2)C1,-8.82
19,Cc1cc(O)c(OCC(=O)Nc2nc3c(s2)CCCC3)cn1,-22.4
20,Cc1ccc(S(=O)(=O)N2CCC(Cn3cc(C(C)(C)N)nn3)CC2)s1,-6.09
21,COc1cc(C#N)ccc1OCC(=O)N(C1CC1)C(C)c1ccco1 (stereo not given),-9.56
22,Cc1cnc(C(=O)N2Cc3ncn(C)c3C(COCC(C)C)C2)cn1 (stereo not given),-4.87
23,O=C(COc1ccccc1)N1CCC[C@]2(C[C@@H](OCC3CC3)CO2)C1,0.205

row,Structure (SMILES),cytotoxicity at 70.5 h [%]
1,CN1CCN(Cc2ccccc2CNC(=O)c2ccc(Br)cc2F)CC1,-4.3
2,Fc1cccc(N2CCCC3(C2)CN(c2cnccn2)CCO3)c1 (stereo not given),-5.22
3,CN1CCN(c2nccc(-c3cncnc3C3CCCCC3)n2)CC1,-5.17
4,Cc1ccc(-c2ccnc(NCC3(N(C)C)CCOCC3)n2)c(C)n1,-4
5,CCNC(=O)[C@@H]1C[C@@H](NC(=O)c2ccsc2)CN1CCCSC,-3.62
6,CN(C)C(=O)[C@H]1C[C@@H]2CN(C(=O)NCC3CCCCC3)C[C@H]1O2,-0.82
7,N#Cc1ccc(CN2CCCC2Cn2cccn2)cc1 (stereo not given),2.25
8,CCCS(=O)(=O)N1CC[C@H]2O[C@@H](c3nc(C)no3)CC[C@H]21,-21.7
9,COCC(=O)N1C[C@@H](C)[C@](O)(C(C)C)C1,-3.63
10,O=c1ccc(S(=O)(=O)N2CCCC2)cn1CC1CCCCO1 (stereo not given),-11.1
11,CN(Cc1nnc(-c2ccco2)o1)C(C(N)=O)c1cccc(F)c1 (stereo not given),0.238
12,Cn1cc(CN2C[C@H]3CCC[C@@H](CNc4ncccn4)[C@H]3C2)cn1,-3.23
13,Cc1cnc(CN(Cc2cccc(O)c2)CC2CC2)cn1,-6.41
14,O=c1[nH]c2ccc(S(=O)(=O)N(CCO)Cc3ccncc3)cc2[nH]1,-4.4
15,O=C(CSCCN1CCOCC1)N1CCc2ccccc2C1,17.6
16,NC(=O)c1nnn(-c2ccc(Cl)cc2)n1,-5.31
17,Cc1cc(C)cc(C(=O)NCCCC2(C3OCCO3)CCOCC2)c1,1.06
18,Cn1ccc2c(C(=O)NCCCN3CCCC3)cccc21,-3.04
19,CN(C)c1cc(C(=O)N2CCCC(n3cccn3)C2)ccn1 (stereo not given),-11.4
20,Cc1nnc(CN2CCCC2c2ccc(Cl)c(Cl)c2)o1 (stereo not given),-1.84
21,Cc1nn(C)c(N(C)C)c1CNCc1ccccc1CN(C)C,18.8
22,O=C1COc2cc(S(=O)(=O)NCCC3=CCCCC3)c(Br)cc2N1,-8
23,CC(C)(C)C(=O)NCC(=O)NCC1CCCS1 (stereo not given),-10.6

row,Structure (SMILES),cytotoxicity at 70.5 h [%]
1,Cc1ccccc1N1CCN(CCS(=O)(=O)c2ccc(Br)cc2)CC1,16
2,O=C(Nc1cccs1)NC(CCCO)c1ccccc1 (stereo not given),-17.7
3,NC(=O)C1Cn2ccnc2C2(CCN(C(=O)NC3CCCC3)CC2)O1 (stereo not given),-8.91
4,O=C(c1cnc(Nc2ccccc2)nc1)N1CCC2(CCNCC2)CC1,-13.5
5,CC(C)NC(=O)NCC(Cc1ccc(F)cc1)C(N)=O (stereo not given),21.5
6,CN(CC(=O)NC1(C)CCS(=O)(=O)C1)Cc1ccc(Br)cc1 (stereo not given),7.79
7,Cc1c(C(=O)N2CCCC(n3cncn3)C2)cnn1C (stereo not given),3.32
8,COc1ccc2c(c1)[C@@H](CCNC(C)=O)CC(C)(C)O2,-1.01
9,CCCNC(=O)c1ncn2c1CN(CC(C)C)S(=O)(=O)c1ccccc1-2,13.4
10,CCc1ccc(C(=O)NC2CCc3nc(C)cn3C2)o1 (stereo not given),-4.82
11,CCOc1ccc(C(=O)Nc2c(C)nc3cccc(C)n3c2=O)cc1,-19.3
12,COCc1cnc2n1CCN(C(=O)C1=CCCCC1)C2C (stereo not given),17.6
13,N#Cc1cc2cc(Cl)cnc2nc1O,-12
14,CSc1ccc(CNC2CCN(CCc3ccncc3)CC2)cc1,-1.82
15,CC/N=c1/c(NC(=O)C2CC2)c(O)oc2ccccc12,35.8
16,CN1C(=O)Cc2cc(-c3csc(CCN4CCOC4=O)n3)ccc21,6.81
17,COC(=O)CNC(=O)c1nc(Br)sc1C(C)C,42.9
18,COc1cc2nc(C)n(CC(=O)NCCC(C)C)c(=O)c2cc1OC,-16.6
19,CSC(C)(C)CNC(=O)NC1CCSCC1,-6.55
20,COCC(O)CN(C)C(=O)NC1CCN(Cc2ccccn2)CC1 (stereo not given),-17.1
21,CCN(CCNC(=O)c1cccnc1OCCOC)C1CC1,0.553
22,Cc1nc([C@@H]2C[C@@H]3CCN(C(=O)c4ccsc4)C[C@H]3O2)no1,-4.84
23,Cc1cnc(N2CCC3(CCN(CC4CC4)C3=O)CC2)nc1,-9.16

row,Structure (SMILES),cytotoxicity at 70.5 h [%]
1,O=C(c1n[nH]cc1Br)N1CCOCC1,-4.31
2,CCN1CC(C(=O)N2CCc3cc(C(=O)N(C)C)n(C)c3C2)CCC1=O (stereo not given),-6.7
3,CC(C)[C@H]1CN(Cc2ccccn2)C[C@@H]1NS(=O)(=O)C1CC1,-3.34
4,Cn1cc(Nc2cccc(C(=O)N(CC(N)=O)C3CCCC3)c2)cn1,-3.71
5,COc1c(CNCc2cccc(Cn3ccnc3C)c2)c(C)nn1C,13.2
6,Cc1cccnc1CNCC1(O)CCCN(CC(C)(C)C)C1=O (stereo not given),-4.51
7,CCOCCCC(=O)NC1CCN(C(C)c2ccccc2)CC1 (stereo not given),-5.8
8,Cc1ccc(C(=O)NS(C)(=O)=O)cc1-n1cccc1,-6.32
9,COc1ccc(CNC(=O)CNc2ccccc2OC)cc1,2.91
10,CC(C)CCn1nc(CNc2ccc(Br)cc2)nc1O,-17.8
11,O=C(NC1(c2nnn(Cc3ccncc3)n2)CCCC1)c1ccccc1,-1.85
12,Cc1nn(C)c2c(N(C)Cc3cccs3)nc(C3CC3)nc12,22.5
13,CN1C(=O)CC(C(=O)O)C12CCN(Cc1ccc(F)c(Cl)c1)CC2 (stereo not given),0.558
14,CCOCC1CN(Cc2ccoc2)Cc2ncn(CC3CC3)c21 (stereo not given),5.39
15,Cc1nc[nH]c1C(=O)N1CCC2(CN(C)C(=O)O2)C1 (stereo not given),-7.68
16,CC(=O)Nc1nc(C(=O)NC(C)c2ccc(F)c(F)c2)cs1 (stereo not given),-7.42
17,COCc1cc(N2CCOC(c3ccc(F)cc3)C2)ncn1 (stereo not given),-14.9
18,Nc1nc(N)c2c(n1)OC1(CCCN(Cc3nccs3)CC1)C2 (stereo not given),-9.72
19,COc1cnc(C2(O)CCN(C(=O)c3cccnc3)CC2)c(OC)n1,-4.88
20,Cn1c(CS(=O)(=O)Cc2ccc(Cl)cc2)cc(=O)n(C)c1=O,-6.35
21,O=C(CCCn1ccnc1)NC1CCCN(c2ccccc2Cl)C1 (stereo not given),-18
22,O=S(=O)(N1CCN(CC2CC2)CC1)N1CCCC1c1ccco1 (stereo not given),-5.9
23,CCCNC(=O)C1CCN(CC(O)c2ccccc2)CC1 (stereo not given),-10.6
